Experimental data taken from ChEMBL document CHEMBL3098052, “Chemical synthesis and tyrosinase inhibitory activity of rhododendrol glycosides” (Bioorg Med Chem Lett, 2014).

Target: T1, Tyrosinase (Agaricus bisporus) (UniProt O42713)
T1 sequence (whole entry): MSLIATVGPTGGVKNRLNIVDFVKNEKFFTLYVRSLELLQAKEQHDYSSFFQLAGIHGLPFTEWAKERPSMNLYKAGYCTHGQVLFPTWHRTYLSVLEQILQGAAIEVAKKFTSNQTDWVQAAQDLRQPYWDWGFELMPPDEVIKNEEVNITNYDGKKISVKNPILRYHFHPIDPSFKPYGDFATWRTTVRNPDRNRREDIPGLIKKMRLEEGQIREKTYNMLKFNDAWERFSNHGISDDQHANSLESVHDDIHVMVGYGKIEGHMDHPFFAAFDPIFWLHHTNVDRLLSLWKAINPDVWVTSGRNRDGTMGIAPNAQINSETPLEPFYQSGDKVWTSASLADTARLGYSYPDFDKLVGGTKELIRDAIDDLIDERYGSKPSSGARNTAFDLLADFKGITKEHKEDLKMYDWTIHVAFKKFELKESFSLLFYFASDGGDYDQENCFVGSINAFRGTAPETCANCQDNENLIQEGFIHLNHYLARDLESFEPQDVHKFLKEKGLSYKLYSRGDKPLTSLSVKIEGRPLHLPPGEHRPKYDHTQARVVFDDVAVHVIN
Assay: Ratio of kojic acid IC50 to compound IC50 for mushroom tyrosinase

Row | Ratio IC50 | Compound
1 | 6 | C[C@H](CCc1ccc(O)cc1O)O[C@@H]1O[C@H](CO)[C@@H](O[C@@H]2O[C@H](CO)[C@@H](O)[C@H](O)[C@H]2O)[C@H](O)[C@H]1O

Target: T2, Tyrosinase (Agaricus bisporus, UniProt O42713)
T2 sequence (O42713 whole entry): T1 sequence (whole entry)
Assay: Inhibition of mushroom tyrosinase using L-DOPA as substrate assessed as dopachrome formation after 5 mins by spectrophotometry

Row | Compound | IC50
2 | C[C@H](CCc1ccc(O)cc1O)O[C@@H]1O[C@H](CO)[C@@H](O)[C@H](O)[C@H]1O | 2300 nM
3 | C[C@@H](CCc1ccc(O)cc1O)O[C@@H]1OC[C@@H](O)[C@H](O)[C@H]1O | 4560 nM
4 | C[C@@H](CCc1ccc(O)cc1O)O[C@@H]1O[C@H](CO)[C@@H](O)[C@H](O)[C@H]1O | 4720 nM
5 | CCCCCCc1ccc(O)cc1O [HEXYLRESORCINOL] | 560 nM

Further molecules by falling IC50, results first:

Row | IC50 | Compound
6 | 3830 nM | C[C@@H](CCc1ccc(O)cc1O)O[C@@H]1O[C@H](CO)[C@@H](O[C@@H]2O[C@H](CO)[C@@H](O)[C@H](O)[C@H]2O)[C@H](O)[C@H]1O
7 | 1720 nM | C[C@H](CCc1ccc(O)cc1O)O[C@@H]1OC[C@@H](O)[C@H](O)[C@H]1O
8 | 1510 nM | C[C@H](CCc1ccc(O)cc1O)O[C@@H]1O[C@H](CO)[C@@H](O[C@@H]2O[C@H](CO)[C@@H](O)[C@H](O)[C@H]2O)[C@H](O)[C@H]1O
